Measured values taken from ChEMBL document CHEMBL5726571, “5-hydroxytryptamine receptor 7 activity modulators and their method of use” (2017).

Biological target: 5-hydroxytryptamine receptor 7 (Homo sapiens, UniProt P34969)
Assay: Radiolabel Binding Assay: A stock concentration of 5 nM [3H]LSD (lysergic acid diethyl amide) is prepared in 50 mM Tris-HCl, 10 mM MgCl2, 1 mM EDTA, pH 7.4 (Assay Buffer). Aliquots (50 μl) of radioligand are dispensed into the wells of a 96-well plate containing 100 μl of Assay Buffer. Duplicate 50-μl aliquots of the compound of the disclosure test and chlorpromazine positive control reference compound serial dilutions are added.Membrane fractions of cells expressing recombinant 5HT7 receptors (50 μL) are dispensed into each well. The membranes are prepared from stably tranfected cell lines expressing 5HT7 receptors cultured on 10-cm plates by harvesting PBS-rinsed monolayers, resuspending and lysing in chilled, hypotonic 50 mM Tris-HCl, pH 7.4, centrifuging at 20,000×g, decanting the supernatant and storing at −80° C.; the membrane preparations are resuspended in 3 ml of chilled Assay Buffer and homogenized by several passages through a 26 gauge needle before using in the assay.

5-hydroxytryptamine receptor 7, sequence (P34969 whole entry): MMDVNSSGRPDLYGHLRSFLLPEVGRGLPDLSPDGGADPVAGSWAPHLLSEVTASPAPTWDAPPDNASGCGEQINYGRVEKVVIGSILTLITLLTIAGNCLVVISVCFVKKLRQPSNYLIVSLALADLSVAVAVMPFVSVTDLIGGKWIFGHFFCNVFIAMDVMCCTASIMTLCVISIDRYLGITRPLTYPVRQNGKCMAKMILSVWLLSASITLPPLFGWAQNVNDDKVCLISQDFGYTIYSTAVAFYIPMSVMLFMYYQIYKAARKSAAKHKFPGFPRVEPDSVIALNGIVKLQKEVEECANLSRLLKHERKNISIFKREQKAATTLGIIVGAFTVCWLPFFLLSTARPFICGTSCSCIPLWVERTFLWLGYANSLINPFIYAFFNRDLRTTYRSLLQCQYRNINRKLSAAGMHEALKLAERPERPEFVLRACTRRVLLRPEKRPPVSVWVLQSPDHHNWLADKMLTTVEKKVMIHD

Row | SMILES | IC50 [nM]
1 | CCC1(CC)CC(CCN2CCN(c3ccccc3OC)CC2)OC1=O (stereo not drawn) | 118
2 | CCC1(CC)CC(CCN2CCc3ccccc3C2)OC1=O (stereo not drawn) | 13
3 | CCC1(CC)CC(CCN2CCN(C(c3ccccc3)c3ccccc3)CC2)OC1=O (stereo not drawn) | 83
4 | CCC1(CC)CC(CCN2CCN(c3ccc(O)cc3)CC2)OC1=O (stereo not drawn) | 89
5 | Cc1ccc(N2CCN(CCCC3CC(c4ccccc4)(c4ccccc4)C(=O)O3)CC2)cc1 (stereo not drawn) | 146
6 | CCC1(CC)CC(CCN2CCN(C3CCCCC3)CC2)OC1=O (stereo not drawn) | 3760
7 | O=C1OC(CCN2CCN(c3ccccc3)CC2)CC12CCCCC2 (stereo not drawn) | 33
8 | CCC1(CC)CC(CCN2CCN(c3ccccc3C)CC2)OC1=O (stereo not drawn) | 104
9 | O=C1OC(CCN2CCN(c3ccc(C(F)(F)F)cn3)CC2)CC12CCCCC2 (stereo not drawn) | 254
10 | CCC1(CC)CC(CCN2CCN(c3ccc(N)cc3)CC2)OC1=O (stereo not drawn) | 471
11 | O=C1OC(CCN2CCN(c3cccnc3)CC2)CC12CCCCC2 (stereo not drawn) | 749
12 | CC(C)(C)c1ccccc1N1CCN(CCC2CC3(CCCC3)C(=O)O2)CC1 (stereo not drawn) | 1920
13 | CCC1(CC)CC(CCN2CCN(c3ccccc3O)CC2)OC1=O (stereo not drawn) | 156
14 | O=C1OC(CCN2CCN(c3ccc(C(F)(F)F)cc3)CC2)CC12CCCCC2 (stereo not drawn) | 183
15 | COc1cccc(N2CCN(CCC3CC4(CCCCC4)C(=O)O3)CC2)c1 (stereo not drawn) | 56
16 | O=C1OC(CCN2CCN(c3ccccn3)CC2)CC12CCCCC2 (stereo not drawn) | 44
17 | CCC1(CC)CC(CCN2CCN(c3ccc(C#N)cc3)CC2)OC1=O (stereo not drawn) | 134
18 | COc1ccccc1N1CCN(CCC2CC3(CCCCC3)C(=O)O2)CC1 (stereo not drawn) | 72
19 | CCC1(CC)CC(CCN2CCN(c3ccc([N+](=O)[O-])cc3)CC2)OC1=O (stereo not drawn) | 54
20 | CCC1(CC)CC(CCN2CCN(c3cccc(O)c3)CC2)OC1=O (stereo not drawn) | 324
21 | CCC1(CC)CC(CCN2CCN(c3ccccc3)CC2)OC1=O (stereo not drawn) | 21
22 | CCC1(CC)CC(CCN2CCN(c3cccc(OC)c3)CC2)OC1=O (stereo not drawn) | 165
23 | CC(C)c1ccccc1N1CCN(CCC2CC3(CCCC3)C(=O)O2)CC1 (stereo not drawn) | 24
24 | CCC1(CC)CC(CCN2CCN(c3c(C)cccc3C)CC2)OC1=O (stereo not drawn) | 1380
25 | CCC1(CC)CC(CCN2CCN(c3ccc(C)cc3C)CC2)OC1=O (stereo not drawn) | 363
26 | N#Cc1ccc(N2CCN(CCC3CC4(CCCCC4)C(=O)O3)CC2)nc1 (stereo not drawn) | 1520
27 | CCC1(CC)CC(CCN2CCN(c3ccc(C(O)(c4ccccc4)c4ccccc4)cc3)CC2)OC1=O (stereo not drawn) | 3160
28 | Cc1ccc(N2CCN(CCC3CC(c4ccccc4)(c4ccccc4)C(=O)O3)CC2)cc1 (stereo not drawn) | 145
